Experimental data as given in ChEMBL document CHEMBL1147118, “Efficacy of oseltamivir therapy in ferrets inoculated with different clades of H5N1 influenza virus” (2007).
Activity calls are given as the source filed them. The calls are words filed in the database; no cut-off is given here.

Experiments:
Influenza A virus [1] = test: Antiviral activity against 10^2 EID50 influenza A/Vietnam/1203/04 H5N1 virus inoculated ferrets assessed as inhibition of virus spread in liver at 5 mg/kg after 4 hrs of inoculum for 5 days; format: functional, organism-based; set-up: dose 5 mg/kg
Influenza A virus [2] = test: Survival of 10 EID50 influenza A/Vietnam/1203/04 H5N1 virus inoculated ferrets at 5 mg/kg after 4 hrs of inoculum for 5 days; format: functional, organism-based; set-up: dose 5 mg/kg
Influenza A virus [3] = test: Survival of 10^2 EID50 influenza A/Vietnam/1203/04 H5N1 virus inoculated ferrets at 5 mg/kg after 4 hrs of inoculum for 5 days; format: functional, organism-based; set-up: dose 5 mg/kg
Influenza A virus [4] = test: Antiviral activity against 10 EID50 influenza A/Vietnam/1203/04 H5N1 virus inoculated ferrets assessed as day of death at 5 mg/kg after 4 hrs of inoculum for 5 days; format: functional
Influenza A virus [5] = test: Antiviral activity against 10^2 EID50 influenza A/Vietnam/1203/04 H5N1 virus inoculated ferrets assessed as day of death at 5 mg/kg after 4 hrs of inoculum for 5 days; format: functional
Influenza A virus [6] = test: Antiviral activity against 10 EID50 influenza A/Vietnam/1203/04 H5N1 virus inoculated ferrets assessed as weight loss at 5 mg/kg after 4 hrs of inoculum for 5 days; format: functional
Influenza A virus [7] = test: Antiviral activity against 10^2 EID50 influenza A/Vietnam/1203/04 H5N1 virus inoculated ferrets assessed as inhibition of viral replication in lungs at 5 mg/kg after 4 hrs of inoculum for 5 days; format: functional, organism-based; set-up: dose 5 mg/kg
Influenza A virus [8] = test: Antiviral activity against 10^2 EID50 influenza A/Vietnam/1203/04 H5N1 virus inoculated ferrets assessed as inhibition of virus spread in brain at 5 mg/kg after 4 hrs of inoculum for 5days; format: functional, organism-based; set-up: dose 5 mg/kg
Influenza A virus [9] = test: Antiviral activity against 10^2 EID50 influenza A/Vietnam/1203/04 H5N1 virus inoculated ferrets assessed as inhibition of virus spread in spleen at 5 mg/kg after 4 hrs of inoculum for 5 days; format: functional, organism-based; set-up: dose 5 mg/kg
Influenza A virus [10] = test: Antiviral activity against 10^2 EID50 influenza A/Vietnam/1203/04 H5N1 virus inoculated ferrets assessed as inhibition of viral replication in small intestine at 5 mg/kg after 4 hrs of inoculum for 5 days; format: functional, organism-based; set-up: dose 5 mg/kg
Influenza A virus [11] = test: Survival of 10^2 EID50 influenza A/Vietnam/1203/04 H5N1 virus inoculated ferrets at 10 mg/kg after 24 hrs of inoculum for 5 days; format: functional, organism-based; set-up: dose 10 mg/kg
Influenza A virus [12] = test: Survival of 10^2 EID50 influenza A/Vietnam/1203/04 H5N1 virus inoculated ferrets at 25 mg/kg after 24 hrs of inoculum for 5 days; format: functional, organism-based; set-up: dose 25 mg/kg
Influenza A virus [13] = test: Antiviral activity against 10^2 EID50 influenza A/Vietnam/1203/04 H5N1 virus inoculated ferrets assessed as day of death at 10 mg/kg after 24 hrs of inoculum for 5 days; format: functional
Influenza A virus [14] = test: Survival of 10^6 EID50 influenza A/turkey/15/06 H5N1 virus inoculated ferrets at 10 mg/kg twice daily after 24 hrs inoculum for 5 days; format: functional, organism-based; set-up: dose 10 mg/kg; details: Influenza A virus (A/Turkey/15/2006(H5N1))
Influenza A virus [15] = test: Antiviral activity against 10^6 EID50 influenza A/turkey/15/06 H5N1 virus inoculated ferrets assessed as viral titer in lungs at 10 mg/kg after 24 hrs of inoculum for 5 days; format: functional, Influenza A virus (A/Turkey/15/2006(H5N1))
Influenza A virus [16] = test: Antiviral activity against 10^6 EID50 influenza A/turkey/15/06 H5N1 virus inoculated ferrets assessed as viral titer in brain at 10 mg/kg after 24 hrs of inoculum for 5 days; format: functional, Influenza A virus (A/Turkey/15/2006(H5N1))
Influenza A virus [17] = test: Antiviral activity against 10^2 EID50 influenza A/Vietnam/1203/04 H5N1 virus inoculated ferrets assessed as day of death at 25 mg/kg after 24 hrs of inoculum for 5 days; format: functional
Influenza A virus [18] = test: Antiviral activity against 10^2 EID50 influenza A/Vietnam/1203/04 H5N1 virus inoculated ferrets assessed as maximal change in weight loss at 5 mg/kg after 4 hrs of inoculum for 5 days; format: functional
Influenza A virus [19] = test: Antiviral activity against 10 EID50 influenza A/Vietnam/1203/04 H5N1 virus inoculated ferrets assessed as increase in temperature at 5 mg/kg after 4 hrs of inoculum for 5 days; format: functional
Influenza A virus [20] = test: Antiviral activity against 10^2 EID50 influenza A/Vietnam/1203/04 H5N1 virus inoculated ferrets assessed as increase in temperature at 5 mg/kg after 4 hrs of inoculum for 5 days; format: functional
Influenza A virus [21] = test: Antiviral activity against 10^2 EID50 influenza A/Vietnam/1203/04 H5N1 virus inoculated ferrets assessed as weight loss at 10 mg/kg after 24 hrs of inoculum for 5 days; format: functional
Influenza A virus [22] = test: Antiviral activity against 10^2 EID50 influenza A/Vietnam/1203/04 H5N1 virus inoculated ferrets assessed as weight loss at 25 mg/kg after 24 hrs of inoculum for 5 days; format: functional
Influenza A virus [23] = test: Antiviral activity against 10^2 EID50 influenza A/Vietnam/1203/04 H5N1 virus inoculated ferrets assessed as increase in temperature at 10 mg/kg after 24 hrs of inoculum for 5 days; format: functional
Influenza A virus [24] = test: Antiviral activity against 10^2 EID50 influenza A/Vietnam/1203/04 H5N1 virus inoculated ferrets assessed as increase in temperature at 25 mg/kg after 24 hrs of inoculum for 5 days; format: functional
Influenza A virus [25] = test: Inhibition of 10^2 EID50 influenza A/Vietnam/1203/04 H5N1 virus replication in ferrets brain at 25 mg/kg after 24 hrs of inoculum for 5 days; format: functional, organism-based; set-up: dose 25 mg/kg
Influenza A virus [26] = test: Inhibition of influenza A/Vietnam/1203/04 virus replication in ferrets upper respiratory tract at 10 mg/kg twice daily after 24 hrs of inoculum for 5 days; format: functional, organism-based; set-up: dose 10 mg/kg
Influenza A virus [27] = test: Inhibition of 10^2 EID50 influenza A/Vietnam/1203/04 H5N1 virus replication in ferrets lungs at 10 mg/kg after 24 hrs of inoculum for 5 days; format: functional, organism-based; set-up: dose 10 mg/kg
Influenza A virus [28] = test: Inhibition of 10^2 EID50 influenza A/Vietnam/1203/04 H5N1 virus replication in ferrets liver at 10 mg/kg after 24 hrs of inoculum for 5 days; format: functional, organism-based; set-up: dose 10 mg/kg
Influenza A virus [29] = test: Inhibition of 10^2 EID50 influenza A/Vietnam/1203/04 H5N1 virus replication in ferrets spleen at 10 mg/kg after 24 hrs of inoculum for 5 days; format: functional, organism-based; set-up: dose 10 mg/kg
Influenza A virus [30] = test: Inhibition of 10^2 EID50 influenza A/Vietnam/1203/04 H5N1 virus replication in ferrets lungs at 25 mg/kg after 24 hrs of inoculum for 5 days; format: functional, organism-based; set-up: dose 25 mg/kg
Influenza A virus [31] = test: Inhibition of 10^2 EID50 influenza A/Vietnam/1203/04 H5N1 virus replication in ferrets liver at 25 mg/kg after 24 hrs of inoculum for 5 days; format: functional, organism-based; set-up: dose 25 mg/kg
Influenza A virus [32] = test: Inhibition of 10^2 EID50 influenza A/Vietnam/1203/04 H5N1 virus replication in ferrets spleen at 25 mg/kg after 24 hrs of inoculum for 5 days; format: functional, organism-based; set-up: dose 25 mg/kg
Influenza A virus [33] = test: Antiviral activity against 10^6 EID50 influenza A/turkey/15/06 H5N1 virus inoculated ferrets assessed as weight loss at 10 mg/kg twice daily after 24 hrs inoculum for 5 days; format: functional, Influenza A virus (A/Turkey/15/2006(H5N1))
Influenza A virus [34] = test: Antiviral activity against 10^6 EID50 influenza A/turkey/15/06 H5N1 virus inoculated ferrets assessed as increase in temperature at 10 mg/kg twice daily after 24 hrs inoculum for 5 days; format: functional, Influenza A virus (A/Turkey/15/2006(H5N1))

CCOC(=O)C1=C[C@@H](OC(CC)CC)[C@H](NC(C)=O)[C@@H](N)C1 [OSELTAMIVIR]
Activity (Influenza A virus [1]): inactive
Activity (Influenza A virus [2]): Active
Activity (Influenza A virus [3]): Active
Activity (Influenza A virus [4]): >21 days
Activity (Influenza A virus [5]): 21 days
Activity (Influenza A virus [6]): 8.8%
Activity (Influenza A virus [7]): Active
Activity (Influenza A virus [8]): inactive
Activity (Influenza A virus [9]): inactive
Activity (Influenza A virus [10]): Active
Activity (Influenza A virus [11]): inactive
Activity (Influenza A virus [12]): Active
Activity (Influenza A virus [13]): 7.3 days
Activity (Influenza A virus [14]): Active
log10EID50/g (Influenza A virus [15]): <0.75
log10EID50/g (Influenza A virus [16]): <0.75
Activity (Influenza A virus [17]): >21 days
Activity (Influenza A virus [18]): 20.4%
Activity (Influenza A virus [19]): 5%
Activity (Influenza A virus [20]): 3.4%
Activity (Influenza A virus [21]): 22.1%
Activity (Influenza A virus [22]): 13.4%
Activity (Influenza A virus [23]): 5.7%
Activity (Influenza A virus [24]): 6%
Activity (Influenza A virus [25]): inactive
Activity (Influenza A virus [26]): inactive
Activity (Influenza A virus [27]): Active
Activity (Influenza A virus [28]): Active
Activity (Influenza A virus [29]): Active
Activity (Influenza A virus [30]): Active
Activity (Influenza A virus [31]): Active
Activity (Influenza A virus [32]): Active
Activity (Influenza A virus [33]): 17.9%
Activity (Influenza A virus [34]): 6%
